# Experimental data: ChEMBL document CHEMBL1144096, “New phenanthrene derivatives from maxillaria densa(1)” (J Nat Prod, 1999)
# pIC50: −log10 of the molar value.
# Test system: Ileum
# Assay: Inhibition of rat ileum contraction
# Type: functional, tissue-based
structure (smiles),measurement,value
COc1ccc(Cc2nccc3cc(OC)c(OC)cc23)cc1OC [PAPAVERINE],pIC50,5.81
